# Ends that are not written are not given here.
# Experiments:
# Type in all cases: cell-based, rat
# INS-1E cells [1] = assay: Insulin content (RIA) of INS-1E lysates; details: 24 h
# Experimental: (§1) FIG. 7, comprising FIG. 7A through FIG. 7G, depicts the evaluation of the biological activity of HSA-28P in INS-1E cells. FIG. 7A depicts dose-response analysis of the effect of HSA-28P on the rate of insulin secretion in INS-1E cells. The INS-1E cells were grown and trypsinized as described in Methods. Subsequently, cells were mixed with the indicated concentrations of HSA-28P (red columns), non-relevant peptide nanoparticles (NRPNP, green columns), and naked nanoparticles (NP, blue columns) and were seeded in 12-well plates. After 24 h the cells were taken to a GSIS in the presence of 2.5 mM (weak color bars) or 16.7 mM (strong color bars) glucose. […] INS-1E cells were treated as described in Panel D. Cells were detached by trypsin and counted as described in Methods and then were visualized with a Cells Sense Live Imaging microscope. […]
# The lysis buffer contained 50 mmol/L Tris-HCl, pH 7.5, 1 mmol/L EDTA, 1 mmol/L EGTA, 1 mmol/L Na3VO4, 150 mmol/L NaCl, 50 mmol/L NaF, 10 mmol/L sodium-glycerophosphate, 5 mmol/L sodium pyrophosphate, and 1 mmol/L PMSF, supplemented with 0.1% (v/v) IGEPAL, 0.1% (v/v) 2-β-mercaptoethanol, and protease inhibitor cocktail (1:100 dilution). […] Protein content in the supernatant was determined by Bradford analysis, using a BSA standard dissolved in the same buffer. […]
# INS-1E cells [2] = assay: MTT cell viability under glucose oxidase-induced oxidative stress
# Experimental: as §1, with “glucose. FIG. 7B depicts time-course analysis of the effect of HSA-28P on the rate of insulin secretion in INS-1E cells. The INS-1E cells were prepared for the experiment as described above with 1.34 μM of both HSA-28P or NRPNP, and 0.76 μg/ml of NP.” for “glucose.”
# Briefly, cells were incubated with MTT (2 mg/mL) in growth medium for 30 min at 37° C. […] Absorbance at 570 nm was measured in a SpectraMax M5 spectrophotometer (Sunnyvale, Calif., USA). The obtained results were normalized by total protein content in culture cells, which was measured using the Bradford reagent. […]
# INS-1E cells [3] = assay: Insulin secretion of INS-1E cells after 5 h incubation with peptidomimetic agent
# Experimental: FIG. 22, comprising FIG. 22A through FIG. 22C, depicts experimental results of incubation of INS1E cells with peptidomimetic agent. A peptidomimetic agent was designed to mimic neuroligin's binding site for neurexin. Monomers and dimers had no effect on insulin secretion. Multiple dimers were conjugated to PEG-2000 to simulate clustering (reagent HSA-112). Dimers were also clustered on nanoparticles (HSA-637). FIG. 22A depicts INS-1E cells were incubated for 5 h with HSA-112 (blue columns) or HSA-637 (purple) at different concentrations or with vehicle alone (black), washed, and then tested for insulin secretion at 3 mM glucose (striped columns) or at 20 mM glucose (solid columns). […] FIG. 22B depicts a time course: insulin secretion was analyzed after the number of hours indicated following a 5 h incubation with 100 μM HSA-112 (blue), 500 nM HSA-637 (purple) or vehicle alone (black). Incubations were with 3 mM glucose (striped columns) or 20 mM glucose (solid columns). FIG. 22C depicts microscopy where INS-1E cells were incubated with HSA-637 conjugated to a fluorescent dye (Cy5, red) and then washed. Membranes were stained with Alexa Fluor 488 (green). For better visualization, microscopy was in hypotonic saline causing the INS-1E cells to swell and become more rounded.
substance,measurement,setting,value
"HSA-112: HSA-28 dimer formed by bridging two HSA-28 monomers via amide bond formation with active ester PEG2,000 (QQGEFLNYD-NH2; not fully specified (N-terminus); also: dimer of two HSA-28 monomers bridged via amide bonds with active ester PEG2000)",effect on cellular / total insulin content,INS-1E cells [1],did not affect the cellular insulin content
same,cell protective effect compared with trolox,INS-1E cells [2]; glucose oxidase-induced oxidative stress,almost identical to that of the well-known antioxidant (trolox)
same,effect on cell viability under oxidative stress,"INS-1E cells [2]; glucose oxidase/glucose system, 24 h",cytoprotective effect
same,concentration that significantly increased glucose-stimulated insulin secretion,"INS-1E cells [3]; 5 h incubation, 20 mM glucose, p<0.05",≥ 20 µM
same,effect on insulin secretion,INS-1E cells [3]; INS-1 β cells,increased insulin secretion in a dose-dependent manner
